Reference: patent US20130261986A1, “METHOD FOR DETERMINING LIPOPHILICITY” (ASTELLAS PHARMA INC., priority 2010, published 2013)

Legend:
[1] = Lipophilicity determination by a shake-flask method (Comparative Example), 1-octanol/phosphate buffer pH 7.4, LC/MS; assay type: physicochemical; settings: 1-octanol / phosphate buffer solution pH 7.4, shaken 10 minutes
[2] = cited from earlier work
[3] = Lipophilicity (logD7.4) determination according to the present invention, two 1-octanol/phosphate buffer solvent systems in 96 deep well plate, LC/MS; assay type: physicochemical; settings: 1-octanol:phosphate buffer pH 7.4 at 5:95 and 50:50, 25° C., 3 hours shaking; for logD: read-out: LogD Inventive determination method (Example)
Experimental: Thirty-eight test compounds were determined for logD7.4 according to the present invention. The solution amount per well was set to 1 mL, and 1-octanol was used as a hydrophobic solvent and a phosphate buffer solution buffered at pH 7.4 as a hydrophilic solvent. The amounts of the test substance to be added to the first and second solvent systems, respectively, were adjusted to be equal (X=Y in Equation I). […] Following the above-mentioned conditions, X=Y, a=5, b=95, and c=d=50 were substituted into Equation I to obtain the following quadratic equation (Equation II). As described below, once the test substance was determined, the value of C2/C1 could be determined on the basis of the peak area values and dilution ratios. The resulting value was substituted into Equation II to determine the distribution ratio D, and the common logarithm of this ratio was obtained to thereby compute logD7.4.
Dispensing, shaking, dilution and other steps were automated by a dispensing robot (Hamilton; MicroLabSTARlet), and transfer of plates between systems and some other tasks were performed manually. The specific test procedure is as follows.
Dulbecco's reagent (for 1 L of Sigma's PBS solution; containing 8 g of sodium chloride, 1.15 g of anhydrous sodium monohydrogen phosphate, 0.2 g of potassium chloride, and 0.2 g of anhydrous potassium dihydrogen phosphate) was diluted to give a volume of 1 L, stirring was performed, and insoluble matters were filtered off. The pH of the solution was measured and adjusted to pH 7.4 with 1N HCl.
A separating funnel was charged with a sufficient amount of each of 1-octanol (Kanto Chemical; for distribution coefficient determination) and the phosphate buffer solution prepared in (1), they were mixed well, and the mixture was allowed to stand overnight at room temperature. The upper and lower phases were recovered separately to obtain 1-octanol saturated with the phosphate buffer solution (saturated 1-octanol) and the phosphate buffer solution saturated with 1-octanol (saturated phosphate buffer solution). The resulting solutions were stored at room temperature.
A test compound was added to DMSO to prepare a 10 mM solution.
(1) Ten microliters of the 10 mM test compound solution in DMSO and then 490 μL of saturated 1-octanol were dispensed into a 96 deep well plate. Stirring by suction and ejection was repeated 10 times to prepare a standard octanol solution of the test compound.
(2) Fifty microliters of the standard octanol solution was dispensed into each of two wells; thereafter, 950 μL of the saturated phosphate buffer solution was dispensed into the first well (hydrophobic solvent:hydrophilic solvent=5:95), and 500 μL of the saturated phosphate buffer solution and 450 μL of saturated 1-octanol were dispensed into the second well (hydrophobic solvent:hydrophilic solvent=50:50).
(3) A pressure curable sealant was applied to the multiwell plate, and then the plate was shaken on a shaker at 25° C. for 3 hours. After the shaking, centrifugation was performed at 3000 rpm for 5 minutes.
(4) The lower phase (aqueous phase) was drawn from the first well and diluted 10-fold with methanol to thereby prepare a sample. From the second well, the upper phase (1-octanol phase) was drawn and diluted 10-fold and 50-fold with methanol to thereby prepare two additional samples.
With these 4 samples placed on an LC/MS auto sampler, determination was performed automatically.
(3) The aqueous solution of 0.1% formic acid (solution A) and the acetonitrile solution of 0.1% formic acid (solution B) were used as a HPLC mobile phase.
(4) HPLC was performed using Waters Acquity with a binary pump. The column stationary phase used was a reversed-phase column having octadecyl groups (Acquity BEH C18, 1.7 μm, 2.0×30 mm). The column temperature was set to 50° C.
(5) MS was performed using Waters ZQ or SQD. Data was acquired with the detection mode being set to ESI^+ and the type of ion to be detected being set to [M+H]^+.

logD [1] | logD [3] | Structure (SMILES) | LogD Literature value [2] | LogD Inventive determination method (Example) [3]
3 | 3.2 | CCc1ccc(CCOc2ccc(CC3SC(=O)NC3=O)cc2)nc1 (stereo not drawn) [Pioglitazone] | – | –
1.8 | 2 | NC(=O)N1c2ccccc2C=Cc2ccccc21 [Carbamazepine] | 1.5 | –
3.8 | 3.6 | OCCN1CCN(CCCN2c3ccccc3Sc3ccc(Cl)cc32)CC1 [Perphenazine] | – | –
1 | 0.9 | CC(CCc1ccccc1)NCC(O)c1ccc(O)c(C(N)=O)c1 (stereo not drawn) [Labetalol] | – | –
0.8 | 0.8 | CCOc1ccccc1OCCN[C@H](C)Cc1ccc(OC)c(S(N)(=O)=O)c1 [Tamsulosin] | – | –
4.3 | 4.5 | Cc1ccc(-c2cc(C(F)(F)F)nn2-c2ccc(S(N)(=O)=O)cc2)cc1 [Celecoxib] | – | –
-0.3 | 0 | CCCN(CCC)S(=O)(=O)c1ccc(C(=O)O)cc1 [Probenecid] | – | –

Structure (SMILES) | logD [1] | logD [3] | LogD Literature value [2] | LogD Inventive determination method (Example) [3]
COc1ccc2c(c1)c(CC(=O)O)c(C)n2C(=O)c1ccc(Cl)cc1 [Indomethacin] | 1.2 | – | 0.9 | 1.1
